In the oligonucleotide strings, read from the 5' end, every base follows the letter of its sugar. An asterisk marks phosphorothioate; unmarked linkages are phosphodiester. Other units and linkages are bracketed, terminal groups are in braces. A string of capitals states the bases alone. e = 2'-O-(2-methoxyethyl) (MOE); [5mC] = 5-methylcytosine; d = 2'-deoxy (DNA)
Tests used:
IGFBP-1 = IGFBP-1 mRNA expression in HepG2 cells; type: cell-based, human; conditions: for IGFBP1 mRNA expression: Experiment 2, insulin treated: HepG2 cells transfected with oligomeric compound, 1 nM insulin for four hours, UTC + 1 nM insulin = 100
Procedure: (§1) Approximately 28 hours after transfection, the cells are subjected to serum starvation for a period of 12 to 16 hours, using serum-free growth medium. Following serum starvation, cells are treated with 1 nM insulin (insulin-treated) or are left untreated (basal conditions) for approximately four hours. At the same time, untreated control cells in both plates are treated with 100 nM insulin to determine the maximal insulin response. Following insulin treatment (forty-eight hours after transfection), total RNA is harvested from all samples, and the amount of total RNA from each sample is determined using a Ribogreen assay (Invitrogen Corporation, Carlsbad, Calif.). Real-time PCR is performed on the total RNA samples using primer/probe sets for three insulin responsive genes: insulin-like growth factor binding protein-1 (IGFBP-1), cytosolic PEPCK (PEPCK-C), and follistatin. Gene expression levels obtained by real-time PCR are normalized for total RNA content in the samples.
(§2) Oligomeric compounds of the present invention were tested for their effects on insulin signaling in HepG2 cells. HepG2 cells were plated at 7500 cells/well in collagen coated 96-well plates. The following day, cells were transfected with oligomeric compounds targeting miRNAs using 100 nM oligomeric compound in LIPOFECTIN™ (Invitrogen Corporation, Carlsbad, Calif.) in two 96-well plates. The oligomeric compounds were tested in triplicate on each 96-well plate, except for positive and negative controls, which were measured up to six times per plate. At the end of transfection, the transfection medium was replaced by regular growth medium. Twenty-eight hours post-transfection, the cells were subjected to overnight (sixteen to eighteen hours) serum starvation using serum free growth medium. Forty-four hours post-transfection, the cells in the transfected wells were treated with either no insulin (“basal” Experiment 1, for identification of insulin-mimetic compounds) or with 1 nM insulin (“insulin treated” Experiment 2, for identification of insulin sensitizers) for four hours. At the same time, in both plates, cells in some of the un-transfected control wells are treated with 100 nM insulin to determine maximal insulin response. At the end of the insulin or no-insulin treatment (forty-eight hours post-transfection), total RNA is isolated from both the basal and insulin treated (1 nM) 96-well plates, and the amount of total RNA from each sample is determined using a Ribogreen assay (Molecular Probes, Eugene, Oreg.). Real-time PCR is performed on all the total RNA samples using primer/probe sets for three insulin responsive genes: PEPCK-c, IGFBP-1 and follistatin. Expression levels for each gene are normalized to total RNA, and values+standard deviation are expressed relative to the transfectant only untreated control (UTC) and negative control compounds.
(§3) Protocols for treatment of HepG2 cells and transfection of oligomeric compounds are as described in Example 18. Also as described in Example 18, forty-four hours post-transfection, the cells in the transfected wells were treated with either no insulin (“basal” Experiment 3 (below), for identification of insulin-mimetic compounds) or with 1 nM insulin (“insulin treated” Experiment 4 (below), for identification of insulin sensitizers) for four hours. At the same time, in both plates, cells in some of the un-transfected control wells are treated with 100 nM insulin to determine maximal insulin response. At the end of the insulin or no-insulin treatment (forty-eight hours post-transfection), total RNA is isolated from both the basal and insulin treated (1 nM) 96-well plates, and the amount of total RNA from each sample is determined using a Ribogreen assay (Molecular Probes, Eugene, Oreg.).

PEPCK-c = PEPCK-c mRNA expression in HepG2 cells; type: cell-based, human; conditions: for PEPCKc mRNA expression: Experiment 2, insulin treated: HepG2 cells transfected with oligomeric compound, 1 nM insulin for four hours, UTC + 1 nM insulin = 100
Procedure: as §1, §2, §3

follistatin = assay: Follistatin mRNA expression in HepG2 cells; type: cell-based, human; conditions: for Follistatin mRNA expression: Experiment 2, insulin treated: HepG2 cells transfected with oligomeric compound, 1 nM insulin for four hours, UTC + 1 nM insulin = 100
Procedure: as §1, §2, §3

[1] = test system: BJ, B16-F10, T47D, T47Dp53 and HeLa cells; assay: Cell cycle assay (propidium iodide flow cytometry), cell line panel; type: cell-based; conditions: 150 nM oligomeric compound, 4.5 μg/ml LIPOFECTIN, after 72 hours, propidium iodide flow cytometry
T47D cells = assay: Caspase-3 activity assay (apoptosis) in T47D cells; conditions: T47D cells, 48 hours; for Fold Increase over UTC (caspase activity): 200 nM, relative to untreated control
HeLa cells = assay: Cell cycle assay in HeLa cells; type: cell-based, human; conditions: HeLa cells, 150 nM oligomeric compound
[2] = Experiment 3, basal (no insulin), HepG2 cells, 48 hours post-transfection
[3] = Experiment 4, insulin-sensitization: HepG2 cells treated with 1 nM insulin for four hours, 48 h post-transfection, mRNA by real-time PCR
[4] = 24 hours, relative to untreated control (UTC = 100)
[5] = 48 hours after treatment, relative to untreated control (UTC=100)

| Substance | IGFBP-1 (% UTC) (IGFBP-1; [2]) | IGFBP-1 (% UTC) (IGFBP-1; [3]) | PEPCK-c (% UTC) (PEPCK-c; [2]) | PEPCK-c (% UTC) (PEPCK-c; [3]) | Follistatin (% UTC) (follistatin; [2]) | Follistatin (% UTC) (follistatin; [3]) | IGFBP1 mRNA expression (IGFBP-1) | PEPCKc mRNA expression (PEPCK-c) | Fold Increase over UTC (caspase activity) (T47D cells) | Follistatin mRNA expression (follistatin) | other results |
| --- | --- | --- | --- | --- | --- | --- | --- | --- | --- | --- | --- |
| 328773 (antisense eT*eA*e[5mC]*eT*eT*dT*dA*d[5mC]*dT*d[5mC]*d[5mC]*dA*dA*dG*dG*eT*eT*eT*eT*eA) [compound 328773] | 148 % UTC | 136 % UTC | 138 % UTC | 93 % UTC | 131 % UTC | 148 % UTC | – | – | – | – | G1 (percentage of cells in phase of the cell cycle) [1]: 56.4%; G2/M (percentage of cells in phase of the cell cycle) [1]: 16.7%; S (percentage of cells in phase of the cell cycle) [1]: 26.9%; SubG1 (percentage of cells in phase of the cell cycle) [1]: 2.7%; aneuploid (percentage of cells) [1]: 11.7% |
| 328397 (antisense eT*eT*eG*eA*eT*d[5mC]*d[5mC]*dA*dT*dA*dT*dG*d[5mC]*dA*dA*e[5mC]*eA*eA*eG*eG) [compound 328397] | – | – | – | – | – | – | 57 | 76 | 1.2 | 75 | % cells aneuploid (HeLa cells; [4]): 91%; % cells in cell cycle phase G1 (HeLa cells; [4]): 93%; % cells in cell cycle phase G2/M (HeLa cells; [4]): 142%; % cells in cell cycle phase S (HeLa cells; [4]): 86%; % cells in cell cycle phase subG1 (HeLa cells; [4]): 134%; % cells in cell cycle phase: G1 (HeLa cells; [5]): 97%; % cells in cell cycle phase: G2/M (HeLa cells; [5]): 109%; % cells in cell cycle phase: S (HeLa cells; [5]): 101%; % cells in cell cycle phase: aneuploid (HeLa cells; [5]): 96%; % cells in cell cycle phase: subG1 (HeLa cells; [5]): 74% |
| 328384 (eT*e[5mC]*eA*e[5mC]*eG*dT*dG*dG*dA*dG*dA*dG*dG*dA*dG*eT*eT*eA*eA*eA; antisense) [compound 328384] | 139 % UTC | 102 % UTC | 142 % UTC | 114 % UTC | 110 % UTC | 121 % UTC | – | – | – | – | Fold Increase over UTC (caspase-3 activity, apoptosis) (T47D cells; 200 nM oligomeric compound, experiment of Table 11): 1.0 fold |
| 328377 (eT*e[5mC]*eA*e[5mC]*eT*d[5mC]*d[5mC]*dT*dA*dA*dA*dG*dG*dT*dT*e[5mC]*eA*eA*eG*eT; antisense) [compound 328377] | – | – | – | – | – | – | 247 | 182 | 0.7 | 159 | – |

Reference: US8178506B2, “Oligomeric compounds and compositions for use in modulation of small non-coding RNAs” (Regulus Therapeutics Inc., priority 2003, dated 2012)
